Patent US10450549B2, “Aryloxyphenoxypropionate tolerance in turfrgass species and use of AAD1 as a selectable marker” (Dow AgroSciences, LLC, priority 2004, dated 2019)
Where “and” joins values, the source holds several entries; their conditions need not be identical. Equal entries are not always repeated.

How the values were obtained:
[1] = system: Agrostis palustris var. Pencross; test: Bentgrass plate test bioassay for herbicide degradation; format: in vivo; settings: AAD1 (v1) extract
Protocol: Because of the selective nature of the herbicides being tested (i.e., monocot plants controlled by AOPP herbicides and dicot plants controlled by auxinic herbicides), wildtype Agrostis palustris var. Pencross and Arabidopsis thaliana var. Columbia were used as monocot and dicot test species, respectively. Each species is amenable to germination and growth in small Petri dishes.
Twenty to thirty sterilized seeds for each test species used were added onto a sterile, solidified agar Plate Test Medium (PTM) [2.5 mM KNO3, 2.5 mM KH2PO4, […], 10 mM NaEDTA (pH 8.0), 2 mM MgSO4, 2 mM Ca(NO3) 2, 70 μM H3BO3, 14 μM MnCl2, 0.5 μM CuSO4, 1 μM ZnSO4, 0.2 μM NaMoO4.2H2O, 10 μM NaCl, 10 nM CoCl2.H2O, 0.8% (w/v) sucrose, 0.4% agarose (w/v)] for bioassay in 60×15-mm Petri dishes (Falcon 1007). PTM was additionally modified by adding up to six rates of test herbicide standards or herbicide-enzyme test solution dilutions such that the four-fold concentration increments covered a rate range of three orders of magnitude with the GR50 rate (50% growth reduction) approximately in the center of the range.
For herbicide-enzyme test solutions, the maximal concentration was determined based on the nominal concentration before any subsequent enzymatic degradation would occur. Seeds were evenly spread by adding 3 ml of melted PTM of the same composition, swirling, and allowing to solidify. Plates were sealed and maintained under sterile conditions in a low light growth chamber (24 h day^−1, 100 μE/m^2s^1, 23° C.) for 7 days. Root length or root+shoot length were measured for five randomly chosen Arabidopsis and bentgrass plants, respectively, average mean length (percent of untreated control) vs. nominal herbicide concentration and GR50 determined.

[2] = system: AAD1 (v2)-transformed T1 Arabidopsis; test: T1 Arabidopsis response to postemergence herbicide, % visual injury 2 WAT: native AAD1 (v2) transformants; format: in vivo, Arabidopsis thaliana; settings: for % Injury Ave / individuals with 20-40% injury / individuals with <20% injury / individuals with >40% injury: Native AAD1 (v2) gene, 2 WAT
Protocol: Freshly harvested T1 seed (transformed with native [AAD1 (v2)] or plant optimized [AAD1 (v3)] gene) was allowed to dry for 7 days at room temperature. T1 seed was sown in 26.5×51-cm germination trays (T.O. Plastics Inc., Clearwater, Minn.), each receiving a 200 mg aliquots of stratified T1 seed (˜10,000 seed) that had previously been suspended in 40 ml of 0.1% agarose solution and stored at 4° C. for 2 days to complete dormancy requirements and ensure synchronous seed germination.
Sunshine Mix LP5 (Sun Gro Horticulture Inc., Bellevue, Wash.) was covered with fine vermiculite and subirrigated with Hoagland's solution until wet, then allowed to gravity drain. Each 40 ml aliquot of stratified seed was sown evenly onto the vermiculite with a pipette and covered with humidity domes (KORD Products, Bramalea, Ontario, Canada) for 4-5 days. Domes were removed 1 day prior to initial transformant selection using glufosinate postemergence spray (selecting for the co-transformed PAT gene).
Five to six days after planting (DAP) and again 10 DAP, T1 plants (cotyledon and 2-4-1f stage, respectively) were sprayed with a 0.2% solution of Liberty herbicide (200 g ai/L glufosinate, Bayer Crop Sciences, Kansas City, Mo.) at a spray volume of 10 ml/tray (703 L/ha) using a DeVilbiss compressed air spray tip to deliver an effective rate of 280 g ai/ha glufosinate per application. Survivors (plants actively growing) were identified 5-7 days after the final spraying and transplanted individually into 3-inch pots prepared with potting media (Metro Mix 360). Transplanted plants were covered with humidity domes for 3-4 days and placed in a 22° C. growth chamber as before. Domes were subsequently removed and plants moved to the greenhouse (22+5° C., 50+30% RH, 14 h light:10 dark, minimum 500 μE/m^2s^1 natural+supplemental light) at least 1 day prior to testing for the ability of AAD1 (v3) (plant optimized gene) or AAD1 (v2) (native microbial gene) to provide phenoxy auxin herbicide resistance.
Random individual T1 plants selected for glufosinate resistance above were confirmed for expression of the PAT protein using a PAT ELISA kit (Part no. 7000045, Strategic Diagnostics, Inc., Newark, Del.) to non-destructively confirm fidelity of selection process (manufacturer's protocol). Plants were then randomly assigned to various rates of phenoxy herbicides (dichlorprop or 2,4-D). […] Elevated rates were applied in subsequent trials (50, 200, 800, or 3200 g ae/ha).
All auxin herbicide applications were made using the DeVilbiss sprayer as described above to apply 703 L/ha spray volume (0.4 ml solution/3-inch pot) or applied by track sprayer in a 187 L/ha spray volume. […] Dichlorprop used was technical grade (Sigma, St. Louis, Mo.) dissolved in DMSO and diluted in water (<1% DMSO final concentration). As herbicide rates increased beyond 800 g ae/ha, the pH of the spray solution became exceedingly acidic, burning the leaves of young, tender Arabidopsis plants and complicating evaluation of the primary effects of the herbicides. It became standard practice to apply these high rates of phenoxy herbicides in 200 mM Tris buffer (pH 9.0) to a final pH of ˜7-8.
Table 16. […] Response is presented in terms of % visual injury 2 WAT. […] Since each T1 is an independent transformation event, one can expect significant variation of individual T1 responses within a given rate. An arithmetic mean and standard deviation is presented for each treatment. The range in individual response is also indicated in the last column for each rate and transformation. PAT/Cry1F-transformed Arabidopsis served as an auxin-sensitive transformed control. Wildtype Arabidopsis is untransformed.

[3] = system: AAD1 (v3) T1 tobacco (events 721(2)-013.010 and 721(3)-008.005); test: Segregating AAD1 T1 tobacco response to phenoxy auxin herbicides; format: in vivo, Nicotiana tabacum; settings: rates below 1× field rates (560 g ae/ha); either event
Source text: Two AAD1 (v3) tobacco lines (event 721(2)-013.010 and 721(3)-008.005) were chosen from the T0 generation. The T1 seed was stratified, and sown into selection trays much like that of Arabidopsis (Example 6.4), followed by selective removal of untransformed nulls in this segregating population with 280 g ai/ha glufosinate (PAT selection). Survivors were transferred to individual 3-inch pots in the greenhouse. […] Improved consistency of response is anticipated in T1 plants not having come directly from tissue culture. These plants were compared against wildtype KY 160 tobacco. All plants were sprayed with the use of a track sprayer set at 187 L/ha. […] All applications were formulated in 200 mM Hepes buffer (pH 7.5). Each treatment was replicated 4 times. Plants were evaluated at 3 and 14 days after treatment. Plants were assigned injury rating with respect to stunting, chlorosis, and necrosis. The T1 generation is segregating, so some variable response is expected due to difference in zygosity. (Table 28).

| SMILES | herbicidal activity after AAD1 (v1) treatment, bentgrass plate bioassay [1] | T1 plants surviving uninjured (<20% visual injury) ([2]; AAD1 (v2), 200 g ae/ha) [%] | % Injury Ave ([2]; 50 g ae/ha) [%] | individuals with 20-40% injury ([2]; 50 g ae/ha) | individuals with <20% injury ([2]; 50 g ae/ha) | individuals with >40% injury ([2]; 50 g ae/ha) | % Injury Ave ([2]; 200 g ae/ha) | individuals with 20-40% injury ([2]; 200 g ae/ha) | individuals with <20% injury ([2]; 200 g ae/ha) | individuals with >40% injury ([2]; 200 g ae/ha) | % Injury Ave ([2]; 800 g ae/ha) [%] | individuals with 20-40% injury ([2]; 800 g ae/ha) | individuals with <20% injury ([2]; 800 g ae/ha) | individuals with >40% injury ([2]; 800 g ae/ha) | injury of T1 AAD1 (v3) tobacco [3] |
| --- | --- | --- | --- | --- | --- | --- | --- | --- | --- | --- | --- | --- | --- | --- | --- |
| CC(Oc1ccc(Oc2ncc(C(F)(F)F)cc2Cl)cc1)C(=O)O (stereo not drawn) [haloxyfop] | loss of herbicidal activity | – | – | – | – | – | – | – | – | – | – | – | – | – | – |
| O=C(O)COc1ccc(Cl)cc1Cl [2,4-D, 2,4-dichlorophenoxyacetic acid] | – | 56 | 14.8 | 16 | 55 | 9 | 34% and 34.1% | 11 | 45 | 24 | 52.5 | 32 | 11 | 37 | No injury was observed |
